Measurements from US10329262B2, “Quinazolinone antibiotics” (priority 2013, dated 2019).
“Also recorded” adds a separate entry of the source. Read-outs that look alike come from different tables or passages of the source.

Tests used:
S. aureus NRS119 = experiment: MIC, CLSI broth microdilution, S. aureus NRS119; assay type: cell-based, Staphylococcus aureus
Procedure: (§1) MICs were evaluated following the CLSI microdilution method in BBL™ Mueller-Hinton II broth (Wikler et al., Clinical Laboratory Standards Institute Document M7-A7, 29 (2009)). Briefly, two-fold serial dilutions of compound were prepared in triplicate in 96-well plates and inoculated with 5×10^5 cfu/mL of the bacterial suspension. Plates were incubated at 37° C. for 16-20 hours.

S. aureus NRS123 = experiment: MIC, broth microdilution, S. aureus NRS123; assay type: cell-based; conditions: Staphylococcus aureus
Procedure: as §1

PBP2a allosteric site = target: T1, PBP2a allosteric site (Staphylococcus aureus, UniProt Q53707); experiment: Intrinsic fluorescence quenching of oxacillin-acylated PBP2a; assay type: binding, S. aureus
T1 construct: made in house
Procedure: FIG. 11. Binding of quinazolinone 2 to PBP2a allosteric site. […] (a) The change in the maximum fluorescence intensity was calculated as the difference compared to the intensity in the absence of compound. Any dilution effect was subtracted out using a buffer titration control. […] A nonlinear regression was used to fit the data, with an R^2 of 0.9997. (b) Emission scans of PBP2a intrinsic fluorescence with excitation at 280 nm. Antibiotic 2 was titrated in to give the final concentrations shown and 3 scans (1 min cycles) were averaged for each titration.
Therefore, we have evidence for binding of antibiotic 2 to the allosteric site (X-ray) and to the active site (kinetic assays for competitive inhibition and X-ray altered conformations for the active-site residues) of PBP2a). Binding of antibiotic 2 at the allosteric site induces conformational changes at the active site (FIG. 7B). All of these movements serve to double the area and the volume of the active site.
Therefore, we have evidence for binding of the antibiotic 2 to the allosteric site (X-ray) and to the active site (kinetic assays for competitive inhibition and X-ray altered conformations for the active-site residues) of PBP2a. Binding of antibiotic 2 at the allosteric site induces conformational changes at the active site (FIG. 7b). All of these movements serve to double the area and volume of the active site.

S. aureus NRS128 = experiment: MIC, CLSI broth microdilution, S. aureus NRS128; assay type: cell-based, Staphylococcus aureus; conditions: Table 2.1, S. aureus NRS128
Procedure: as §1

S. aureus VRS2 = experiment: MIC, CLSI broth microdilution, S. aureus VRS2; assay type: cell-based, Staphylococcus aureus
Procedure: as §1

[1] = Plasma protein binding, rapid equilibrium dialysis, human; assay type: in vitro ADME; conditions: humans, 10 μM, 6 h dialysis
Procedure: Aliquots from both chambers were quenched with 1:2 v/v acetonitrile containing an internal standard. The samples were concentrated to dryness on a miVac concentrator and the residue resuspended in 50:50 acetonitrile/water. Samples were analyzed by reverse-phase ultraperformance liquid chromatography (UPLC) with UV/Vis detection. Plasma protein binding of quinazolinone 2 was 98.0±0.04% in mice and 96.5±0.70% in humans.

red blood cells = experiment: Hemolysis; assay type: cell-based, human; conditions: at 50 μg/mL
Procedure: Fresh heparinized human blood was washed three times by centrifugation at 1,200 g for 10 min in 100 mM PBS, pH 7.4. A 10% red-blood cell (RBC) suspension was prepared in PBS. Antibiotic 2 at 0.5, 5, and 50 μg/mL was added to aliquots of the 10% RBC suspension and incubated at 37° C. A positive control of 0.2% Triton was used. Samples were centrifuged at 1,200 g for 10 min and the supernatant measured for absorbance at 541 nm.

S. aureus NRS120 = experiment: MIC, CLSI broth microdilution, S. aureus NRS120; assay type: cell-based, Staphylococcus aureus
Procedure: as §1

[2] = Metabolic stability in human S9; assay type: in vitro ADME; conditions: human S9, 2 μM
Procedure: Aliquots were taken at 0, 5, 10, 20, 30, 40, and 60 min, and mixed with two volumes of acetonitrile containing internal standard. The precipitated protein was centrifuged at 20,000 g for 15 min, and the supernatant was analyzed by reversed-phase UPLC.

MRSA ATCC 27660 = experiment: Mouse peritonitis model of MRSA infection; assay type: in vivo, mice
Procedure: We evaluated several compounds in in vivo mouse infection models, as well as in pharmacokinetic (PK) studies in mice (Table 1). The in vivo efficacy was determined using the rapid mouse peritonitis model of infection, in which the end point is death or survival in 48 hours. We initially dosed the compounds intravenously (iv) at a single dose level. If the compound has good in vivo efficacy after iv administration, we then evaluated efficacy at five dose levels. We also investigated in vivo efficacy after oral (po) administration.
Groups (n=6/group) of mice were infected with MRSA (0.5 mL of ATCC 27660 at a final concentration of 5×10^7 CFU/mL in 5% porcine mucin) intraperitoneally (ip). Following infection, mice were given iv doses by tail vein injection of compound 2, vancomycin (5 mg/kg, positive control), or vehicle at 30 min and 4.5 h after infection. The number of surviving mice was monitored for 48 h. The negative control (vehicle) typically results in the death of all mice. Quinazolinone 2 was dissolved in saline, sterile-filtered, and administered at doses of 2.5, 5, 7.5, 10, 20, and 30 mg/kg. The ED50 value was calculated using GraphPad prism 5.

[3] = tested on: E. coli S30 extract system; experiment: In vitro translation assay (E. coli S30 extract, β-galactosidase); assay type: biochemical; conditions: up to 64 μg/mL
From the text: For in vitro translation, the E. coli S30 Extract System for Circular DNA was used to set up the reactions using plasmid pCP19 containing the lacZ gene for β-galactosidase. Reaction mixtures were supplemented with two-fold dilutions of antibiotic 2 and the β-Galactosidase Enzyme Assay System with Reporter Lysis Buffer was used to quantify the amount of β-galactosidase translated by measuring absorbance at 420 nm. For in vitro transcription, a TranscriptAid T7 High Yield Transcription kit was used with a pET24a/dacB DNA construct under the T7 promoter. The purified plasmid was linearized using the restriction endonuclease XhoI and then purified according to the manufacturer's instructions. A series of samples were prepared and supplemented with two-fold dilutions of antibiotic 2. Samples were analyzed by running on a denaturing 1% formaldehyde agarose gel and stained with ethidium bromide to visualize RNA. Intensities of the bands were quantified and compared to the control to determine the amount of transcription occurring in the presence of 2.

T1 sequence (Q53707 entry or part of it): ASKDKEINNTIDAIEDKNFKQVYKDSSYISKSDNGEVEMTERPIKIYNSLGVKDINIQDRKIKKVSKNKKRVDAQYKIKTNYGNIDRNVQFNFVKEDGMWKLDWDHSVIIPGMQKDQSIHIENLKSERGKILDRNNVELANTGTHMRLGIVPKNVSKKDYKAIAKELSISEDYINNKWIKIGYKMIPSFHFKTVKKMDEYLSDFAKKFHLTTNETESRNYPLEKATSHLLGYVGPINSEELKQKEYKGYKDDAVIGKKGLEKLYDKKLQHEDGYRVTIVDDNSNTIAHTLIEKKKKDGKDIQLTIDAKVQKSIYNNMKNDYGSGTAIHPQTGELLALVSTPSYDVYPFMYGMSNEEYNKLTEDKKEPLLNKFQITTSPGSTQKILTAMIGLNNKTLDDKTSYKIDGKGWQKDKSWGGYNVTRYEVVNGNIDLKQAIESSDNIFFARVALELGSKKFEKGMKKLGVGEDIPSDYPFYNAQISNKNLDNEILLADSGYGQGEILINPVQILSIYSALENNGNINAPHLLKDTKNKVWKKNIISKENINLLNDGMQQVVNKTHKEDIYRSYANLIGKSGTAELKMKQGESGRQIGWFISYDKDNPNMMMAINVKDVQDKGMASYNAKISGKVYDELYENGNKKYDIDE

Compound: N#Cc1ccc(/C=C/c2nc3ccccc3c(=O)n2-c2cccc(C(=O)O)c2)cc1.[Na] [Compound 2, Sodium (E)-3-(3-carboxyphenyl)-2-(4-cyanostyryl)quinazolin-4(3H)-one]
- MIC (S. aureus NRS119; Staphylococcus aureus, NRS119): 8 µg/mL
- In vitro AB activity (MIC) (S. aureus NRS119; Table 2.1, S. aureus NRS119): 8 µg/mL
- MIC (S. aureus NRS123; NRS123): 2 µg/mL
- MIC (S. aureus NRS123; NRS123, read-out: MIC NRS123): 4 µg/mL
- Kd (PBP2a allosteric site): 16.3 µM
- In vitro AB activity (MIC) (S. aureus NRS128): 4 µg/mL
- MIC (S. aureus VRS2; Staphylococcus aureus, VRS2): 2 µg/mL
- In vitro AB activity (MIC) (S. aureus VRS2; Table 2.1, S. aureus VRS2): 2 µg/mL
- Plasma protein binding [1]: 96.5±0.70%
- Hemolysis of red blood cells (red blood cells): < 1%
- MIC (S. aureus NRS120; Staphylococcus aureus, NRS120): 8 µg/mL
- In vitro AB activity (MIC) (S. aureus NRS120; Table 2.1, S. aureus NRS120): 8 µg/mL
- Compound remaining after 1-h incubation [2]: 100%
- In Vivo Efficacy (survived/total mice) (MRSA ATCC 27660; 10 mg/kg iv at 30 min and 4.5 hr after infection, n = 6, 48 h): 5/6 @ 10 mg/kg
- ED50 (MRSA ATCC 27660; Staphylococcus aureus, iv administration, dose giving survival of 50% of the animals, read-out: Median effective dose (ED50)): 10 mg/kg
- Inhibition of in vitro translation [3]: did not show any inhibition; also recorded: No inhibition
